Assay in all cases: Glasshouse assay for herbicidal activity (pre- and post-emergence), percentage phytotoxicity
Holding throughout (assay type): in vivo

One assay has as its system Lolium perenne (LOLPE). The conditions noted are these: Lolium perenne. In short, it runs like this:
(§1)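 Visual phytotoxicity score, 0% = undamaged to 100% = total kill, read 20 days after treatment for PRE and 15 days for POST. Pots of standard soil; treatment at day 1 (PRE) or roughly day 12 (POST). Glasshouse: 16 h photoperiod, 65% RH, 24/18 or 20/16 °C by climate type.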

For the next assay, the system named is Avena fatua (AVEFA). The conditions noted are these: Avena fatua. The gist of the method: as §1
The test system of assay [1] is Echinochloa crus-galli (ECHCG). The note with it: Echinochloa crus-galli. The gist of the method: as §1
In assay [2] the test system is Alopecurus myosuroides (ALOMY). The conditions noted are these: Alopecurus myosuroides. In short, it runs like this:
as §1

Where [3] appears, read: post-emergence, 360 h, 250 g/ha, post-emergence, 15 DAA, visual assessment (100%=total damage, 0%=no damage), read-out: Post-emergence herbicidal activity (percentage phytotoxicity) LOLPE POST.
Where [4] appears, read: pre-emergence, 480 h, 250 g/ha, pre-emergence, 20 DAA, visual assessment (100%=total damage, 0%=no damage), read-out: Pre-emergence herbicidal activity (percentage phytotoxicity) LOLPE PRE.
Setting [5] is: post-emergence, 360 h, 250 g/ha, post-emergence, 15 DAA, visual assessment (100%=total damage, 0%=no damage), read-out: Post-emergence herbicidal activity (percentage phytotoxicity) AVEFA POST.
Setting [6] is: pre-emergence, 480 h, 250 g/ha, pre-emergence, 20 DAA, visual assessment (100%=total damage, 0%=no damage), read-out: Pre-emergence herbicidal activity (percentage phytotoxicity) AVEFA PRE.
Setting [7] is: post-emergence, 360 h, 250 g/ha, post-emergence, 15 DAA, visual assessment (100%=total damage, 0%=no damage), read-out: Post-emergence herbicidal activity (percentage phytotoxicity) ECHCG POST.
Setting [8] is: pre-emergence, 480 h, 250 g/ha, pre-emergence, 20 DAA, visual assessment (100%=total damage, 0%=no damage), read-out: Pre-emergence herbicidal activity (percentage phytotoxicity) ECHCG PRE.
[9] abbreviates: post-emergence, 360 h, 250 g/ha, post-emergence, 15 DAA, visual assessment (100%=total damage, 0%=no damage), read-out: Post-emergence herbicidal activity (percentage phytotoxicity) ALOMY POST.
Where [10] appears, read: pre-emergence, 480 h, 250 g/ha, pre-emergence, 20 DAA, visual assessment (100%=total damage, 0%=no damage), read-out: Pre-emergence herbicidal activity (percentage phytotoxicity) ALOMY PRE.
[11] abbreviates: post-emergence, 360 h, POST-emergence, rate 250 g/ha, visual score 15 DAA (100%=total damage, 0%=no damage), read-out: Post-emergence herbicidal activity (percentage phytotoxicity) LOLPE POST.
Setting [12] is: pre-emergence, 480 h, PRE-emergence, rate 250 g/ha, visual score 20 DAA (100%=total damage, 0%=no damage), read-out: Pre-emergence herbicidal activity (percentage phytotoxicity) LOLPE PRE.
[13] abbreviates: post-emergence, 360 h, POST-emergence, rate 250 g/ha, visual score 15 DAA (100%=total damage, 0%=no damage), read-out: Post-emergence herbicidal activity (percentage phytotoxicity) AVEFA POST.
Where [14] appears, read: pre-emergence, 480 h, PRE-emergence, rate 250 g/ha, visual score 20 DAA (100%=total damage, 0%=no damage), read-out: Pre-emergence herbicidal activity (percentage phytotoxicity) AVEFA PRE.
[15] abbreviates: post-emergence, 360 h, POST-emergence, rate 250 g/ha, visual score 15 DAA (100%=total damage, 0%=no damage), read-out: Post-emergence herbicidal activity (percentage phytotoxicity) ECHCG POST.
Where [16] appears, read: pre-emergence, 480 h, PRE-emergence, rate 250 g/ha, visual score 20 DAA (100%=total damage, 0%=no damage), read-out: Pre-emergence herbicidal activity (percentage phytotoxicity) ECHCG PRE.
Setting [17] is: post-emergence, 360 h, POST-emergence, rate 250 g/ha, visual score 15 DAA (100%=total damage, 0%=no damage), read-out: Post-emergence herbicidal activity (percentage phytotoxicity) ALOMY POST.
Where [18] appears, read: pre-emergence, 480 h, PRE-emergence, rate 250 g/ha, visual score 20 DAA (100%=total damage, 0%=no damage), read-out: Pre-emergence herbicidal activity (percentage phytotoxicity) ALOMY PRE.

Where two headings read alike, the source gives them in different places.

Take `Cc1cc(-c2ncc(Cl)s2)cc(C)c1C1C(=O)CC(CC(=O)NC(C)(C)C)C1=O` (stereo not drawn) [Compound B24]: the pest or weed control at 250 g/ha came out at 90% in the assay on Lolium perenne (LOLPE) (setting [3]); 100% in the assay with Lolium perenne (LOLPE) (setting [4]); 80% with Avena fatua (AVEFA) (setting [5]); 80% in the assay with Avena fatua (AVEFA) (setting [6]); 100% in assay [1] (setting [7]); 100% in assay [1] (setting [8]). Besides, the pest or weed control at 250 g/ha in assay [2] (setting [9]) stood at 90%; in assay [2] (setting [10]), 80%.
As to `Cc1cc(-c2ncc(F)cc2F)cc(C)c1C1C(=O)CC(CC(=O)NCC2CC2(Cl)Cl)C1=O` (stereo not drawn) [Compound B77], the pest or weed control at 250 g/ha in the assay on Lolium perenne (LOLPE) (setting [3]) turned out to be 100%; with Lolium perenne (LOLPE) (setting [4]) it was 100%; with Avena fatua (AVEFA) (setting [5]), 100%; in the assay on Avena fatua (AVEFA) (setting [6]), 90%; in assay [1] (setting [7]) it was 100%; in assay [1] (setting [8]), 100%. Moreover, the values for the pest or weed control at 250 g/ha in assay [2] (setting [9]) and in assay [2] (setting [10]) were 100% and 90%, respectively.
For the compound `Cc1cc(C)c(C2C(=O)CC(CC(=O)NC/C=C/Br)C2=O)c(C)c1` (stereo not drawn) [Compound B115], the pest or weed control at 250 g/ha was 100% in the assay on Lolium perenne (LOLPE) (setting [3]); 100% in the assay with Lolium perenne (LOLPE) (setting [4]); 80% in the assay with Avena fatua (AVEFA) (setting [5]); 50% in the assay with Avena fatua (AVEFA) (setting [6]); 90% in assay [1] (setting [7]); 100% in assay [1] (setting [8]). Moreover, the pest or weed control at 250 g/ha in assay [2] (setting [9]) and in assay [2] (setting [10]) was 80% in each case.
For the compound `Cc1cc(-c2ncc(Cl)cc2F)cc(C)c1C1C(=O)CC(CC(=O)NCC2CC2(F)F)C1=O` (stereo not drawn) [Compound B197], the pest or weed control at 250 g/ha was 100% in the assay with Lolium perenne (LOLPE) (setting [11]); 90% with Lolium perenne (LOLPE) (setting [12]); 100% with Avena fatua (AVEFA) (setting [13]); 90% in the assay on Avena fatua (AVEFA) (setting [14]); 100% in assay [1] (setting [15]); 100% in assay [1] (setting [16]). Further, the pest or weed control at 250 g/ha in assay [2] (setting [17]) and in assay [2] (setting [18]) was 100% in each case.
Turning to `C=C(C)CNC(=O)CC1CC(=O)C(c2c(C)cc(-c3ccc(Cl)cn3)cc2C)C1=O` (stereo not drawn) [Compound B361], the pest or weed control at 250 g/ha was 90% in the assay with Lolium perenne (LOLPE) (post-emergence, 360 h, Rate 250 g/ha, post-emergence, visual assessment 15 DAA, 100%=total damage, 0%=no damage, read-out: Post-emergence herbicidal activity (percentage phytotoxicity) LOLPE POST); 90% in the assay on Lolium perenne (LOLPE) (pre-emergence, 480 h, Rate 250 g/ha, pre-emergence, visual assessment 20 DAA, 100%=total damage, 0%=no damage, read-out: Pre-emergence herbicidal activity (percentage phytotoxicity) LOLPE PRE); 100% in the assay on Avena fatua (AVEFA) (post-emergence, 360 h, Rate 250 g/ha, post-emergence, visual assessment 15 DAA, 100%=total damage, 0%=no damage, read-out: Post-emergence herbicidal activity (percentage phytotoxicity) AVEFA POST); 100% with Avena fatua (AVEFA) (pre-emergence, 480 h, Rate 250 g/ha, pre-emergence, visual assessment 20 DAA, 100%=total damage, 0%=no damage, read-out: Pre-emergence herbicidal activity (percentage phytotoxicity) AVEFA PRE); 100% in assay [1] (post-emergence, 360 h, Rate 250 g/ha, post-emergence, visual assessment 15 DAA, 100%=total damage, 0%=no damage, read-out: Post-emergence herbicidal activity (percentage phytotoxicity) ECHCG POST); 100% in assay [1] (pre-emergence, 480 h, Rate 250 g/ha, pre-emergence, visual assessment 20 DAA, 100%=total damage, 0%=no damage, read-out: Pre-emergence herbicidal activity (percentage phytotoxicity) ECHCG PRE). Besides, the pest or weed control at 250 g/ha in assay [2] (post-emergence, 360 h, Rate 250 g/ha, post-emergence, visual assessment 15 DAA, 100%=total damage, 0%=no damage, read-out: Post-emergence herbicidal activity (percentage phytotoxicity) ALOMY POST) was found to be 100%; in assay [2] (pre-emergence, 480 h, Rate 250 g/ha, pre-emergence, visual assessment 20 DAA, 100%=total damage, 0%=no damage, read-out: Pre-emergence herbicidal activity (percentage phytotoxicity) ALOMY PRE) it was 90%.
As to `Cc1cc(-c2ncc(Cl)cc2F)cc(C)c1C1C(=O)CC(CC(=O)NCc2cccs2)C1=O` (stereo not drawn) [Compound A125], the pest or weed control at 250 g/ha in the assay with Lolium perenne (LOLPE) (post-emergence, 360 h, Rate 250 g/ha, post-emergence, assessed visually 15 DAA, 100%=total damage, 0%=no damage, read-out: Post-emergence herbicidal activity (percentage phytotoxicity) LOLPE POST) was 100%; in the assay on Lolium perenne (LOLPE) (pre-emergence, 480 h, Rate 250 g/ha, pre-emergence, assessed visually 20 DAA, 100%=total damage, 0%=no damage, read-out: Pre-emergence herbicidal activity (percentage phytotoxicity) LOLPE PRE), 90%; in the assay on Avena fatua (AVEFA) (post-emergence, 360 h, Rate 250 g/ha, post-emergence, assessed visually 15 DAA, 100%=total damage, 0%=no damage, read-out: Post-emergence herbicidal activity (percentage phytotoxicity) AVEFA POST) it was 100%; with Avena fatua (AVEFA) (pre-emergence, 480 h, Rate 250 g/ha, pre-emergence, assessed visually 20 DAA, 100%=total damage, 0%=no damage, read-out: Pre-emergence herbicidal activity (percentage phytotoxicity) AVEFA PRE), 80%; in assay [1] (post-emergence, 360 h, Rate 250 g/ha, post-emergence, assessed visually 15 DAA, 100%=total damage, 0%=no damage, read-out: Post-emergence herbicidal activity (percentage phytotoxicity) ECHCG POST) it was 100%; in assay [1] (pre-emergence, 480 h, Rate 250 g/ha, pre-emergence, assessed visually 20 DAA, 100%=total damage, 0%=no damage, read-out: Pre-emergence herbicidal activity (percentage phytotoxicity) ECHCG PRE), 100%. The pest or weed control at 250 g/ha was 90% in assay [2] (post-emergence, 360 h, Rate 250 g/ha, post-emergence, assessed visually 15 DAA, 100%=total damage, 0%=no damage, read-out: Post-emergence herbicidal activity (percentage phytotoxicity) ALOMY POST) and 70% in assay [2] (pre-emergence, 480 h, Rate 250 g/ha, pre-emergence, assessed visually 20 DAA, 100%=total damage, 0%=no damage, read-out: Pre-emergence herbicidal activity (percentage phytotoxicity) ALOMY PRE).
For `C#CCN(C)C(=O)CC1CC(=O)C(c2c(C)cc(-n3cc(Cl)cn3)cc2CC)C1=O` (stereo not drawn) [Compound B240], the pest or weed control at 250 g/ha was 100% with Lolium perenne (LOLPE) (setting [11]); 90% in the assay with Lolium perenne (LOLPE) (setting [12]); 100% in the assay with Avena fatua (AVEFA) (setting [13]); 90% in the assay on Avena fatua (AVEFA) (setting [14]); 100% in assay [1] (setting [15]); 90% in assay [1] (setting [16]). Further, the pest or weed control at 250 g/ha in assay [2] (setting [17]) and in assay [2] (setting [18]) was 100% in each case.
Regarding `Cc1cc(C)c(C2C(=O)CC(CC(=O)NC3(C)CCC3)C2=O)c(C)c1` (stereo not drawn) [Compound B32], the pest or weed control at 250 g/ha in the assay with Lolium perenne (LOLPE) (setting [3]) worked out at 50%; with Lolium perenne (LOLPE) (setting [4]) it was 90%; in the assay on Avena fatua (AVEFA) (setting [5]) it was 40%; in the assay with Avena fatua (AVEFA) (setting [6]) it was 0%; in assay [1] (setting [7]), 80%; in assay [1] (setting [8]), 80%. For the same compound, the pest or weed control at 250 g/ha in assay [2] (setting [9]) stood at 70%; in assay [2] (setting [10]) it was 90%.
As for `Cc1cc(-c2ncc(F)cn2)cc(C)c1C1C(=O)CC(CC(=O)N2CCOCC2)C1=O` (stereo not drawn) [Compound B276], the pest or weed control at 250 g/ha with Lolium perenne (LOLPE) (setting [11]) stood at 100%; in the assay with Lolium perenne (LOLPE) (setting [12]), 90%; in the assay on Avena fatua (AVEFA) (setting [13]), 90%; in the assay with Avena fatua (AVEFA) (setting [14]), 80%; in assay [1] (setting [15]) it was 100%; in assay [1] (setting [16]), 100%. Moreover, the pest or weed control at 250 g/ha worked out at 90% in assay [2] (setting [17]) and 100% in assay [2] (setting [18]).

Source of the values: patent US10206394B2, “Herbicidal compounds” (Syngenta Participations AG, priority 2014, dated 2019).
